Measurements from patent US7381733B2, “Tropane derivatives having dopamine reuptake inhibitor activity for the treatment of ischemic diseases” (Neurosearch A/S, priority 2001, dated 2008).

Test system: TH positive cells in the substantia nigra
Experiment: Protection of the substantia nigra after transient global ischaemia in gerbils (TH positive cell count)
Assay type: in vivo, Mongolian gerbils
Details: 2 mg/kg i.p. 2 minutes after end of occlusion
Method: Protection of the Substantia Nigra after Transient Global Ischaemia in Gerbils
In this experiment, the neuroprotective effect of a test compound is assessed in an animal model of transient global ischaemia.
Method: In halothane anaesthetised gerbils, right and left carotid arteries are located and occluded for 10 minutes. Animals are kept at normal body temperature before and after the operation using heating lamps. During surgery, the gerbils are placed on heating pads, the body temperature is controlled and maintained at 37±0.5° C. The test compound is dosed at specified time points after the ischaemic insult, either i.v., i.p., s.c. or p.o.
Fourteen days later, the animals are sacrificed, brains removed and cooled to −70° C. Thereafter, the brains are sectioned in 20 μm thick sections through the substantia nigra region. Sections are stained for tyroxine hydroxylase (TH+) expression using immunohistochemistry. The number of TH+ cells in the sections is counted and the total number of TH+ cells in the substantia nigra is calculated by means of stereology. […]
After 14 days, the animals were sacrificed and the brains sectioned. […] The total number of TH positive cells after ischemia or in control animals were determined by means of stereological cell counting.

Structure (SMILES): CON=C[C@@H]1[C@@H](c2ccc(Cl)c(Cl)c2)CC2CC[C@H]1N2C [test compound, (1R,2R,3S)-3-(3,4-dichlorophenyl)-tropane-2-O-methyl-aldoxime]
- Mean number of cells (total number of TH positive cells in the substantia nigra) (10 min bilateral carotid artery occlusion, counted after 14 days by stereology, control 9531, ischemia 7510): 10615 cells
- number of surviving TH positive cells in the substantia nigra after ischemia, compared with untreated ischemia (10 min carotid artery occlusion, 14 days): apparently increased
